# Reference: patent US20090018146A1, “Combination Therapy with Triterpenoid Compounds and Proteasome Inhibitors” (Research Development Corporation, priority 2005, published 2009)
# Residues, ends and D or L forms follow the SMILES beside them. *: point of attachment. Cbz = O=C(OCc1ccccc1)*; CH2F = FC*
# Legend:
# [1] = test system: Hsp70; test: Western blot of Hsp70 protein in avicin D treated Jurkat cells; type: cell-based, human
# Method: (§1) Jurkat T cells (2 μg/ml=1 μM), U-937 (4 μg/ml), MJ (5 μg/ml), and HH cells (2.5 μg/ml) were treated for 0-24 hours with the indicated concentrations of avicin D. PBLs from the patients or normal blood were treated with 5 μg/ml of avicin D for 24 hours.
# (§2) At the end of treatments, cells were harvested, washed with sterile ice-cold PBS and cytoplasmic extracts (CE) were prepared by lysing the cells in CE buffer containing 10 mM Hepes-Cl pH 7.5, 10 mM KCl, 0.1 mM EDTA, 0.1 mM EGTA, 0.3% NP40, and a protease inhibitor cocktail (Sigma). After centrifugation and separating the supernatant (CE proteins), the pellet was resuspended in a buffer containing 20 mM Hepes-Cl, 400 mM NaCl, 1 mM EDTA, 1 mM EGTA, and protease inhibitor cocktail (Sigma). The nuclear protein extraction proceeded for 30 min. on ice followed by centrifugation at 14,000 rpm for 5 min at 4° C. The clear supernatant containing nuclear proteins (NE) was collected, glycerol (10%) was added, and proteins stored at −80° C. until use.
# (§3) SDS-PAGE and immunoblot procedures were essentially performed as described (Sambrook, 1989). Briefly, cytoplasmic and nuclear proteins were resolved on SDS-PAGE, blotted on PVDF membranes (BioRad) and probed with various antibodies followed with anti-rabbit, anti-mouse antibody conjugated to horseradish peroxidase (HRP) from BioRad or HRP conjugated anti-goat antibody from Santa Cruz Biotechnology, corresponding to the primary antibody. Protein bands were detected using the ECL chemiluminescence kit from Amersham as per the manufacturer's protocol.
# (§4) Quantitation of proteins (western) and transcripts (RT-PCR) was performed using the NIH 1.61 image software.
# [2] = test system: Hsp90; test: Western blot of Hsp90 protein in avicin D treated Jurkat cells; type: cell-based, human; details: lactacystin 10 μM 30 minutes, then avicin D 4 hours
# Method: as §1, §2
# SDS-PAGE and immunoblot procedures were essentially performed as described (Sambrook, 1989). […] Protein bands were detected using the ECL chemiluminescence kit from Amersham as per the manufacturer's protocol.
# as §4
# [3] = test system: XIAP; test: Western blot of XIAP protein in Jurkat cells; type: cell-based, human
# Method: as §1, §2, §3, §4
# [4] = test system: his-ub-Hsp70; test: In vivo ubiquitination of Hsp70 in his-ub transfected Jurkat cells; type: cell-based, human; details: lactacystin 10 μM 30 minutes pretreatment, then avicin D 4 hours
# Method: Jurkat T-cells were transfected with a plasmid pDG268 that expresses a fusion protein of histidine-tagged human ubiquitin and enhanced GFP. Transfection was performed using μm ax a Biosystems kit and their protocol. After 24 hours of transfection, cells were harvested, resuspended at a density of 10^6 cells/ml before treatment with lactacystin or avicin D.
# Jurkat T cells transfected with the his-ub plasmid construct were treated with lactacystin (10 μM) or with avicin D (1 μM) for 4 hours. Cells were harvested and CE prepared as described above. […] The affinity purified histidine-tagged proteins were separated on SDS-PAGE and analyzed on western blots for ub-Hsp70 proteins.
# [5] = test system: 20S activity; details: general statement on proteasome inhibitors; cited from earlier work
# [6] = test system: S. pombe; test: Effects of avicin G on the growth of S. pombe wild type and mutants; type: cell-based, Schizosaccharomyces pombe; details: for sensitivity to avicin G relative to wild-type: 26° C.
# Method: FIGS. 10A and 10B: Effects of Avicin G on the Growth of S. pombe Mutants. Wild type, mts2-1 (mts2), mts3-1 (mts3), and nuc2-663 cells were spread on YEAU plates. Avicin G (25 jug) was then spotted onto the respective cell lawns and the plates were incubated at 26° C. for 5 days. The relative avicin G sensitivity of each strain, based on measurements of areas of avicin G-induced growth inhibition, was then determined, with wild-type cells being normalized to a value of 1 (FIG. 10A).
# (§5) Standard yeast culture media and genetic methods were used (Alfa et al., 1993; Rose et al., 1990). S. pombe cultures were grown in either YEAU (0.5% yeast extract, 3% dextrose, 75 […]) or synthetic minimal medium (EMM) with appropriate supplements.
# [7] = test system: S. pombe cells; test: Detection of ubiquitinated proteins in S. pombe; type: cell-based, Schizosaccharomyces pombe; details: wild type S. pombe, 20 μg/ml avicin G, after 90 minutes (1.5 hours), immunoblot
# Method: as §5
# S. pombe cultures were lysed with glass beads in PEM buffer (100 mM PIPES, 1 mM EGTA, 1 mM MgSO4, pH 6.9) containing 4 mM benzamide, 10 μM E64, 50 μM leupeptin, 1 μM pepstatin, 1 mM phenylmethanesulfonyl fluoride, and 2 μg/ml aprotinin essentially as described in (Yen et al., 2003). Equal amounts of protein were resolved by SDS-PAGE and subsequent immunoblotting using anti-ubiquitin mouse monoclonal antibody (Stressgen Biotechnologies).
smiles,measurement,setting,value
"CC(=O)N[C@@H](CSC(=O)[C@]1([C@@H](O)C(C)C)NC(=O)[C@H](C)[C@@H]1O)C(=O)O [lactacystin, reference compound]",effect of lactacystin pretreatment on the avicin-induced decrease in Hsp70 protein,"[1]; lactacystin 10 μM 30 minutes, then avicin D 4 hours",totally reversed
same,effect of lactacystin pretreatment on the avicin-induced decrease in Hsp90 protein,[2],totally reversed
same,effect of lactacystin on the avicin induced XIAP decrease,[3]; lactacystin 30 minutes prior to avicin D 4 hours,blocked
same,effect of lactacystin on the avicin-induced decrease of his-ub-Hsp70,[4],sensitive to lactacystin
CC(C)C[C@H](NC(=O)[C@H](Cc1ccccc1)NC(=O)c1cnccn1)B(O)O [PS341],suppression of 20S activity,[5],suppress 20S activity completely
"COC(=O)C[C@H](NC(=O)[C@H](C)NC(=O)[C@@H](NC(=O)OCc1ccccc1)C(C)C)C(=O)CF [zVAD-fmk, reference compound] (Cbz-Val-Ala-Asp(OMe)-CH2F)",effect of caspase inhibition on the avicin-induced degradation of Hsp70,[1]; zVAD-FMK 50 μM 30 minutes prior to avicin D 1 μM 4 hours,no significant effect
same,block of avicin-induced XIAP degradation,[3]; zVAD-FMK 50 μM prior to avicin D 4 hours,−22%
C=C[C@](C)(O)CC/C=C(\C)C(=O)O[C@H]1[C@H](O)[C@@H](O)[C@H](O[C@@](C)(C=C)CC/C=C(\CO)C(=O)O[C@H]2C[C@]3(C(=O)O[C@@H]4O[C@H](CO)[C@@H](O)[C@H](O)[C@H]4O[C@@H]4O[C@@H](C)[C@H](O[C@@H]5O[C@@H](CO)[C@H](O)[C@H]5O)[C@@H](O[C@@H]5O[C@H](CO)[C@@H](O)[C@H](O)[C@H]5O)[C@H]4O)[C@H](O)C[C@]4(C)C(=CC[C@@H]5[C@@]6(C)CC[C@H](O[C@@H]7O[C@H](CO[C@@H]8O[C@H](C)[C@H](O)[C@H](O)[C@H]8O[C@@H]8OC[C@@H](O)[C@H](O)[C@H]8O)[C@@H](O)[C@H](O)[C@H]7NC(C)=O)C(C)(C)[C@@H]6CC[C@]54C)[C@@H]3CC2(C)C)O[C@@H]1C [avicin G],sensitivity to avicin G relative to wild-type,"[6]; mts2-1 26S proteasome mutant, 25 μg spotted, 5 days",only slightly increased
same,sensitivity to avicin G relative to wild-type,"[6]; mts3-1 26S proteasome mutant, 25 μg spotted, 5 days",only slightly increased
same,sensitivity to avicin G relative to wild-type,[6]; nuc2-663 APC mutant,markedly resistant
same,growth on YEAU containing 16 μg/ml avicin G,"[6]; nuc2-663 cells, 5 days at 26° C.",grew
same,levels of ubiquitinated proteins,[7],increase in the levels of ubiquitinated proteins
